As usually defined, the microsomal CLint is a measure of how fast metabolising enzymes remove a compound, apart from limits set by blood flow. Usually half-life stands for the time needed for the level to fall by half in the phase considered.

Data set [1] in a line: Metabolism of AC, MA and HA in rat liver microsomes by HPLC. Type of data set: in vitro ADME. The note with it: NADPH. The procedure:
Agilent C18 column (4.60 mm × 150 mm, 5μm), mobile phase A was 20 mmol / L ammonium acetate and 0.1% formic acid aqueous solution, mobile phase B was methanol, isocratic elution, A: B = 60:40, flow rate was 1 ml / min, detection wavelength was 240 nm, column temperature was 30°C, injection volume was 20 μL.
1 mg / ML microsome 100 μL, PBS 75 μL and aconitine alkaloids 5 μL (AC, MA and HA: 1 mmol / L) were added. 20 μL NADPH (10 mmol / L) was added to start the reactionand, AC and HA were incubated for 90 min, MA were incubated for 120 min. The reaction was terminated by adding 200 μL glacial acetonitrile, 12 000 r / min at 4°C for 10 min, and 20 μL supernatant was used for HPLC.
For orientation: Microsomes from liver hold many membrane-bound enzymes, among them those of drug oxidation.

A short description of data set [2]: Plasma concentration of AC, MA and HA in rats by LC-MS/MS. The conditions noted are these: for Plasma concentration: single animals. Type of data set: in vivo, rat. Details: Plasma concentration: unit not given here. The procedure:
12 SD rats were randomly divided into Aconitum and Glycyrrhizae combind with Aconitum group, 6 rats in each group, 2 mL / kg was given by gavage respectively.

A short description of a further data set: in vitro. The note with it: SD, rat, microsomes.
The next data set deals with CYP3A1 mRNA. The experiment in a line: CYP3A1 mRNA expression in rat liver after 14 days dosing (RT-PCR). Type of data set: in vivo. The conditions noted are these: positive induction 0.08 g/kg/D, single replicates. From the text: (§1) All animal procedures, including killing, were approved by the Institutional Animal Care and Use Committee at Medical College of Shanghai University of TCM. 25 SD rats, weighing 180–200 g, were purchased from Shanghai SLAC Laboratory Animal company and fed in SPF environmental condition. The rats were randomly divided into negative control, phenobarbital positive induction (0.08 g / kg / D) and Glycyrrhiza groups with different concentrations (0.33 g / kg / D, 1 g / kg / D and 3 g / kg / D), with 5 rats in each group, intragastric administration for 14 days. The phenobarbital induced group was given intraperitoneal injection three days before treatment. The animals were killed by CO2 asphyxiation, liver microsomes were prepared and were used to detect the expression of CYP3A1 / 2 mRNA in liver tissue.
(§2) Total RNA was extracted using Trizol reagent according to the manufacturer’s instructions. 1μg of total RNA was transcribed to cDNA using the PrimeScriptTM RT Master Mix kit (TaKaRa, China). Quantitative RT-PCR was performed in a reaction volume of 20μL cDNA on ABI system (Applied Biosystems, Life Technologies). The average cycle thresholds (Ct) were employed to quantify fold-change. The 2^-△△CT method was reported to calculate relative gene expression levels.

Another data set concerns CYP3A2 mRNA. Nature of the data set: CYP3A2 mRNA expression in rat liver after 14 days dosing (RT-PCR). Type of data set: in vivo. The conditions noted are these: positive induction 0.08 g/kg/D, single replicates.
Source text: as §1, §2

The subject of the next data set is CHF rat model. The experiment in a line: ATP, ADP and AMP in left ventricular myocardium (HPLC) of ADR-induced CHF rats. The conditions noted are these: 5 mL/kg/D gavage 4 weeks. Type of data set: in vivo. The method, then:
According to reference, the rat model of CHF was established by intraperitoneal injection of ADR (2.5 mg / kg) once a week for six weeks. 6 weeks later, the rats were randomly divided into model group, Aconitum (0.3 g / mL), Glycyrrhizae combind with Aconitum (0.6 g / mL) and Captopril (1.25 mg / mL) group. Each treatment group was given 5 mL / kg / D by gavage for 4 weeks, the normal and model group were given the same volume of distilled water by gavage. After the last administration, the rats were killed by CO2 asphyxia, and the indexes were determined.
Weighed 100 mg of left ventricular myocardium of rats, cut into pieces, added 500 μL 4.2% perchloric acid, homogenized in ice bath, 3 000 r / min, 4°C for 15 min. Took 200 μL of the supernatant, added 135 μL of 1 mol / L NaOH, adjusted the pH to about 6.0, shaked and mixed, 8 000 r / min, 4°C for 10 min, and took 20 μL of the supernatant for HPLC analysis. There was a good linear relationship between the peak area measured by HPLC and the concentrations of ATP, AMP and ADP, and the content was calculated according to the standard curve.

Values joined by “and” are separate entries in the source; they are usually repeats but may differ in a detail not shown here. Equal values may be shown once.

With `COC[C@@]12CC[C@H](OC)[C@]34C(C([C@H](OC)[C@H]13)[C@]1(OC(C)=O)[C@H]3[C@@H](OC(=O)c5ccccc5)[C@](O)(C[C@H]34)[C@@H](OC)[C@@H]1O)N(C)C2` [HA, hypaconitine], the “metabolites produced in RLMs” value in data set [1] is reported as “two metabolites”. In data set [2] (2 mL/kg by gavage), the “plasma concentration with compatibility of Glycyrrhizae and Aconitum vs Aconitum alone” value is reported as “significantly lower”. The Plasma concentration in data set [2] (Aconitum 2 mL/kg gavage, 10 min) is 0.964 and 1.77 and 0.583 and 0.492 and 0.28; in data set [2] (Aconitum 2 mL/kg gavage, 20 min), 1.07 (2×) and 1.95 and 0.668 and 0.566; in data set [2] (Aconitum 2 mL/kg gavage, 30 min), 1.2 and 2.66 and 1.06 and 0.923 and 0.551; in data set [2] (Aconitum 2 mL/kg gavage, 45 min), 1.22 and 2.65 and 1.35 and 0.88 and 0.451; in data set [2] (Aconitum 2 mL/kg gavage, 60 min), 1.83 and 3.39 and 1.29 and 0.737 and 0.573; in data set [2] (Aconitum 2 mL/kg gavage, 90 min), 2.02 and 2.54 and 1.07 and 0.724 and 0.474. Besides, the Plasma concentration is 1.44 and 2.32 and 0.775 and 0.501 and 0.434 in data set [2] (Aconitum 2 mL/kg gavage, 120 min); 0.658 and 0.936 and 0.168 and 0.375 and 0.151 in data set [2] (Aconitum 2 mL/kg gavage, 240 min); 0.287 and 0.417 and 0.0407 and 0.175 and 0.0302 in data set [2] (Aconitum 2 mL/kg gavage, 360 min); 0.104 and 0.179 and 0.00087 and 0.0398 and 0 in data set [2] (Aconitum 2 mL/kg gavage, 480 min); 0.519 and 1.06 and 0.945 and 0.416 and 0.07 in data set [2] (Glycyrrhizae + Aconitum 2 mL/kg gavage, 10 min); 0.52 and 1.66 and 1.4 and 0.661 and 0.18 in data set [2] (Glycyrrhizae + Aconitum 2 mL/kg gavage, 20 min). Further, the Plasma concentration in data set [2] (Glycyrrhizae + Aconitum 2 mL/kg gavage, 30 min) is 0.774 and 1.59 and 1.79 and 1.06 and 0.53; in data set [2] (Glycyrrhizae + Aconitum 2 mL/kg gavage, 45 min) it was 1.02 and 1.61 and 1.74 and 0.809 and 0.75; in data set [2] (Glycyrrhizae + Aconitum 2 mL/kg gavage, 60 min) it was 1.15 and 1.58 and 1.52 and 0.84 and 0.77; in data set [2] (Glycyrrhizae + Aconitum 2 mL/kg gavage, 90 min), 0.845 and 1.4 and 1.33 and 0.925 and 0.66; in data set [2] (Glycyrrhizae + Aconitum 2 mL/kg gavage, 120 min), 0.763 and 1.16 and 1.07 and 0.744 and 0.75; in data set [2] (Glycyrrhizae + Aconitum 2 mL/kg gavage, 240 min), 0.288 and 0.492 and 0.287 and 0.316 and 0.924. The Plasma concentration was 0.34 and 0.239 and 0.0767 and 0.225 and 0.0462 in data set [2] (Glycyrrhizae + Aconitum 2 mL/kg gavage, 360 min); 0 and 0.104 and 0.0428 and 0.0921 and 0.181 in data set [2] (Glycyrrhizae + Aconitum 2 mL/kg gavage, 480 min). Also, the intrinsic metabolic clearance (microsomal CLint) in the data set “in vitro” (RLMs of Control rats) amounted to 10.5 ± 0.23 µL/min/mg; in the data set “in vitro” (RLMs of rats pretreated with Glycyrrhizae 0.33 g/kg) it was 12.1 ± 0.23 µL/min/mg; in the data set “in vitro” (RLMs of rats pretreated with Glycyrrhizae 1 g/kg), 13.6 ± 0.4 µL/min/mg; in “in vitro” (RLMs of rats pretreated with Glycyrrhizae 3 g/kg), 11.6 ± 0.4 µL/min/mg; in “in vitro” (RLMs of rats pretreated with Phenobarbital 0.08 g/kg) it was 14 ± 0.4 µL/min/mg. The half-life in “in vitro” (t1/2, RLMs of Control rats) turned out to be 4.39 ± 0.095 h; in “in vitro” (t1/2, RLMs of rats pretreated with Glycyrrhizae 0.33 g/kg) it was 3.81 ± 0.0717 h; in the data set “in vitro” (t1/2, RLMs of rats pretreated with Glycyrrhizae 1 g/kg), 3.4 ± 0.1 h; in “in vitro” (t1/2, RLMs of rats pretreated with Glycyrrhizae 3 g/kg) it was 3.99 ± 0.138 h; in the data set “in vitro” (t1/2, RLMs of rats pretreated with Phenobarbital 0.08 g/kg), 3.3 ± 0.0943 h.
For `CCC1(c2ccccc2)C(=O)NC(=O)NC1=O` [Phenobarbital], in the data set with CYP3A1 mRNA, the “CYP3A1 mRNA” value is 8.832 and 7.88 and 8.097. For the same compound, in the data set on CYP3A2 mRNA, the “CYP3A2 mRNA” value is 3.986 and 3.344 and 3.449.
With `C[C@H](CS)C(=O)N1CCC[C@H]1C(=O)O` [captopril, Captopril], the “ADP level in left ventricular myocardium, difference vs model group” value in the data set with CHF rat model was -0.07185 ± 0.02716.
